tested on: not given; experiment: not given; conditions: not given

| melting point | SMILES |
| --- | --- |
| 118 to 120 °C | C=Cc1c(C(=O)OC)nc(-c2ccc(C(F)(F)F)c(F)c2F)c(F)c1N [Compound 53, methyl 4-amino-6-(2,3-difluoro-4-(trifluoromethyl)phenyl)-5-fluoro-3-vinylpicolinate] |

tested on: Key Broadleaf Weed and Crop Species; experiment: Post-emergent Test II herbicidal activity (Table 5); format: in vivo; conditions: post-emergence, 336 h; ABUTH: velvetleaf (Abutilon theophrasti); 70 g ai/ha; post-emergent; 14 days after application; read-out: Visual Growth Reduction (%) 14 Days After Application ABUTH
Method in brief: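 Greenhouse post-emergent assay: seedlings (first/second true leaf) in Metro-Mix 360 were sprayed at 187 L/ha at a top rate plus twofold dilutions down to 1/16×; solvent-blank controls were included. Percent visual injury was read at 14 d.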

| SMILES | pest or weed control at 70 g/ha |
| --- | --- |
| C=Cc1c(C(=O)OC)nc(-c2ccc(C(F)(F)F)c(F)c2F)c(F)c1N [Compound 53, methyl 4-amino-6-(2,3-difluoro-4-(trifluoromethyl)phenyl)-5-fluoro-3-vinylpicolinate] | 0 to 29% |

same assay, conditions: post-emergence, 336 h; ABUTH: velvetleaf (Abutilon theophrasti); 140 g ai/ha; post-emergent; 14 days after application; read-out: Visual Growth Reduction (%) 14 Days After Application ABUTH

| SMILES | pest or weed control at 140 g/ha |
| --- | --- |
| C=Cc1c(C(=O)OC)nc(-c2ccc(C(F)(F)F)c(F)c2F)c(F)c1N [Compound 53, methyl 4-amino-6-(2,3-difluoro-4-(trifluoromethyl)phenyl)-5-fluoro-3-vinylpicolinate] | 0 to 29% |

same assay, conditions: post-emergence, 336 h; AMARE: redroot pigweed (Amaranthus retroflexus); 70 g ai/ha; post-emergent; 14 days after application; read-out: Visual Growth Reduction (%) 14 Days After Application AMARE

| SMILES | pest or weed control at 70 g/ha |
| --- | --- |
| C=Cc1c(C(=O)OC)nc(-c2ccc(C(F)(F)F)c(F)c2F)c(F)c1N [Compound 53, methyl 4-amino-6-(2,3-difluoro-4-(trifluoromethyl)phenyl)-5-fluoro-3-vinylpicolinate] | 0 to 29% |

same assay, conditions: post-emergence, 336 h; AMARE: redroot pigweed (Amaranthus retroflexus); 140 g ai/ha; post-emergent; 14 days after application; read-out: Visual Growth Reduction (%) 14 Days After Application AMARE

| SMILES | pest or weed control at 140 g/ha |
| --- | --- |
| C=Cc1c(C(=O)OC)nc(-c2ccc(C(F)(F)F)c(F)c2F)c(F)c1N [Compound 53, methyl 4-amino-6-(2,3-difluoro-4-(trifluoromethyl)phenyl)-5-fluoro-3-vinylpicolinate] | 0 to 29% |

same assay, conditions: post-emergence, 336 h; BRSNN: oilseed-rape, canola (Brassica napus); 70 g ai/ha; post-emergent; 14 days after application; read-out: Visual Growth Reduction (%) 14 Days After Application BRSNN

| SMILES | pest or weed control at 70 g/ha |
| --- | --- |
| C=Cc1c(C(=O)OC)nc(-c2ccc(C(F)(F)F)c(F)c2F)c(F)c1N [Compound 53, methyl 4-amino-6-(2,3-difluoro-4-(trifluoromethyl)phenyl)-5-fluoro-3-vinylpicolinate] | 0 to 29% |

same assay, conditions: post-emergence, 336 h; BRSNN: oilseed-rape, canola (Brassica napus); 140 g ai/ha; post-emergent; 14 days after application; read-out: Visual Growth Reduction (%) 14 Days After Application BRSNN

| SMILES | pest or weed control at 140 g/ha |
| --- | --- |
| C=Cc1c(C(=O)OC)nc(-c2ccc(C(F)(F)F)c(F)c2F)c(F)c1N [Compound 53, methyl 4-amino-6-(2,3-difluoro-4-(trifluoromethyl)phenyl)-5-fluoro-3-vinylpicolinate] | 0 to 29% |

same assay, conditions: post-emergence, 336 h; CHEAL: lambsquarters (Chenopodium album); 70 g ai/ha; post-emergent; 14 days after application; read-out: Visual Growth Reduction (%) 14 Days After Application CHEAL

| SMILES | pest or weed control at 70 g/ha |
| --- | --- |
| C=Cc1c(C(=O)OC)nc(-c2ccc(C(F)(F)F)c(F)c2F)c(F)c1N [Compound 53, methyl 4-amino-6-(2,3-difluoro-4-(trifluoromethyl)phenyl)-5-fluoro-3-vinylpicolinate] | 0 to 29% |

same assay, conditions: post-emergence, 336 h; CHEAL: lambsquarters (Chenopodium album); 140 g ai/ha; post-emergent; 14 days after application; read-out: Visual Growth Reduction (%) 14 Days After Application CHEAL

| SMILES | pest or weed control at 140 g/ha |
| --- | --- |
| C=Cc1c(C(=O)OC)nc(-c2ccc(C(F)(F)F)c(F)c2F)c(F)c1N [Compound 53, methyl 4-amino-6-(2,3-difluoro-4-(trifluoromethyl)phenyl)-5-fluoro-3-vinylpicolinate] | 0 to 29% |

same assay, conditions: post-emergence, 336 h; EPHHL: wild poinsettia (Euphorbia heterophylla); 70 g ai/ha; post-emergent; 14 days after application; read-out: Visual Growth Reduction (%) 14 Days After Application EPHHL

| SMILES | pest or weed control at 70 g/ha |
| --- | --- |
| C=Cc1c(C(=O)OC)nc(-c2ccc(C(F)(F)F)c(F)c2F)c(F)c1N [Compound 53, methyl 4-amino-6-(2,3-difluoro-4-(trifluoromethyl)phenyl)-5-fluoro-3-vinylpicolinate] | 95 to 100% |

same assay, conditions: post-emergence, 336 h; EPHHL: wild poinsettia (Euphorbia heterophylla); 140 g ai/ha; post-emergent; 14 days after application; read-out: Visual Growth Reduction (%) 14 Days After Application EPHHL

| SMILES | pest or weed control at 140 g/ha |
| --- | --- |
| C=Cc1c(C(=O)OC)nc(-c2ccc(C(F)(F)F)c(F)c2F)c(F)c1N [Compound 53, methyl 4-amino-6-(2,3-difluoro-4-(trifluoromethyl)phenyl)-5-fluoro-3-vinylpicolinate] | 95 to 100% |

same assay, conditions: post-emergence, 336 h; HELAN: sunflower (Helianthus annuus); 70 g ai/ha; post-emergent; 14 days after application; read-out: Visual Growth Reduction (%) 14 Days After Application HELAN

| SMILES | pest or weed control at 70 g/ha |
| --- | --- |
| C=Cc1c(C(=O)OC)nc(-c2ccc(C(F)(F)F)c(F)c2F)c(F)c1N [Compound 53, methyl 4-amino-6-(2,3-difluoro-4-(trifluoromethyl)phenyl)-5-fluoro-3-vinylpicolinate] | 0 to 29% |

same assay, conditions: post-emergence, 336 h; HELAN: sunflower (Helianthus annuus); 140 g ai/ha; post-emergent; 14 days after application; read-out: Visual Growth Reduction (%) 14 Days After Application HELAN

| SMILES | pest or weed control at 140 g/ha |
| --- | --- |
| C=Cc1c(C(=O)OC)nc(-c2ccc(C(F)(F)F)c(F)c2F)c(F)c1N [Compound 53, methyl 4-amino-6-(2,3-difluoro-4-(trifluoromethyl)phenyl)-5-fluoro-3-vinylpicolinate] | 0 to 29% |

same assay, conditions: post-emergence, 336 h; VIOTR: wild pansy (Viola tricolor); 70 g ai/ha; post-emergent; 14 days after application; read-out: Visual Growth Reduction (%) 14 Days After Application VIOTR

| SMILES | pest or weed control at 70 g/ha |
| --- | --- |
| C=Cc1c(C(=O)OC)nc(-c2ccc(C(F)(F)F)c(F)c2F)c(F)c1N [Compound 53, methyl 4-amino-6-(2,3-difluoro-4-(trifluoromethyl)phenyl)-5-fluoro-3-vinylpicolinate] | 0 to 29% |

same assay, conditions: post-emergence, 336 h; VIOTR: wild pansy (Viola tricolor); 140 g ai/ha; post-emergent; 14 days after application; read-out: Visual Growth Reduction (%) 14 Days After Application VIOTR

| SMILES | pest or weed control at 140 g/ha |
| --- | --- |
| C=Cc1c(C(=O)OC)nc(-c2ccc(C(F)(F)F)c(F)c2F)c(F)c1N [Compound 53, methyl 4-amino-6-(2,3-difluoro-4-(trifluoromethyl)phenyl)-5-fluoro-3-vinylpicolinate] | 0 to 29% |

From patent publication US9113629B2, “4-amino-6-(4-substituted-phenyl)-picolinates and 6-amino-2-(4-substituted-phenyl)-pyrimidine-4-carboxylates and their use as herbicides” (DOW AGROSCIENCES LLC, priority 2013, dated 2015)
